Reference: PMC6145916, “Interaction of mitochondrial fission factor with dynamin related protein 1 governs physiological mitochondrial function in vivo” (Scientific Reports, 2018)
Where no end group is shown, it is not given here.

What was measured:
Mfn2 = assay: Binding of recombinant Mfn2 to surface-conjugated P259 (AGILE-R100 graphene sensor); set-up: species or system human; details: P259 surface-conjugated (50 nM), 100 nM protein, RIPA buffer pH 8.0; n = 3, with 3 replicates
Text: Figure 1 Rational peptide design identifies a novel inhibitor of the Mff-Drp1 protein-protein interaction. (a) A scheme of the rationale behind the inhibitor design. […] Surface and ribbon diagrams of Drp1 structure (PDB, 4BEJ) with the GTPase, bundle signaling element (BSE), and stalk domains highlighted. (d) A heatmap representing sequence conservation of human proteins that contain a region similar to P259. Sequence conservation corresponds to the number of residues similar/identical to P259 from each sequence. […] The obtained graph is of the mean standardized response and ± s.e. as a function of time for n = 3 individual experiments, with 3 technical replicates each. […] Represented Western blot is cropped from a full blot shown in the Expanded Western Blots section of the Supplementary Information. (h) Relative GTPase activity of recombinant Drp1 in the presence of 1 µM of peptide (n = 3–5). Data are mean ± s.e. from 3–5 independent experiments per condition.
Drp1 and Mff. Utilizing BioPython, a pairwise alignment was performed between each ortholog […]
brief, an automated microwave peptide synthesizer (Liberty, CEM Corporation) was used to perform solid phase peptide synthesis by a series of coupling of fluorenylmethoxycarbonyl (Fmoc)-protected amino acids and hydroxybenz otriazol (HOBt) […] reaction steps. […]

[1] = tested on: Drp1 with Fis1/Mid49/Mid51; assay: Co-immunoprecipitation of recombinant Drp1 with the other adaptors; format: binding; details: 1 µM P259, 2 hours at 4 °C, 200 ng Drp1, 200 ng adaptor, RIPA buffer; representative blot of two independent experiments
MFF knockout MEFs = assay: Mitochondrial membrane potential (TMRM), MFF knockout MEFs; format: cell-based, mouse; details: 20 µM P259 overnight, vs no peptide; 3 independent experiments, three technical replicates; ns p = 0.93
Method: Data are of 3 independent experiments with the whiskers calculated by the Turkey method. e. […]
determined by an unpaired, two -tailed t test). g. […]
control (no peptide treatment). Data are mean ± s.e. from 3 independent experiments. […]
and without phenol red. […] After incubation
HEPES, and without phenol red. […]
epifluorescence microscope with a 10X objective (Keyence). The Cy5 filter (Keyence) was used to autofocus on the mitochondria plane. […]
Mitochondrial membrane potential determination
After treatment, cells were washed with
Cells were incubated in a 37
°C incubator for 30 minutes. […]

For “YGRKKRRQRRRGSGIIQLPEIVVV-NH2 (C-terminus assumed) [P259]”, the “binding to Mfn2” value (Mfn2) was “only negligible binding”, the “binding of other receptors (Fis1, Mid49, Mid51) to co-immunoprecipitated recombinant Drp1” value [1] was “without affecting the binding of any other receptor” and the “effect on mitochondrial membrane potential, Mff knockout MEFs” value (MFF knockout MEFs) was “insensitive”.
